Among the data in ChEMBL document CHEMBL4330083, “Synthesis and evaluation of isoprenylation-resveratrol dimer derivatives against Alzheimer's disease” (Eur J Med Chem, 2019) are Activity, Flu intensity and viability values, retold here.

Common to all, as to type: functional
In test [1] the test system is PC-12. Put plainly: Neuroprotection against H2O2-induced oxidative damage in rat PC12 cells assessed as late apoptotic cells at 2.5 uM after 24 hrs in presence of H2O2 by annexin V-FITC/propidium iodide staining based flow cytometric analysis (reference value: 29.8%).
Test [2] is described as follows: Neuroprotection against LPS-induced inflammation in […] cells assessed as reduction in ROS production by measuring mean fluorescence intensity at 2.5 uM after 18 hrs by DCFH-DA staining-based flow cytometric analysis (reference value: 70385). On the technique in general: A flow cytometer gives signals particle by particle.
For test [3], the system named is PC-12. Nature of the test: Neuroprotection against H2O2-induced oxidative damage in rat PC12 cells assessed as necrotic cells at 5 uM after 24 hrs in presence of H2O2 by annexin V-FITC/propidium iodide staining based flow cytometric analysis (reference value: 4.5%).
The subject of test [4] is PC-12. Put plainly: Neuroprotection against H2O2-induced oxidative damage in rat PC12 cells assessed as intracellular Ca2+ level by measuring mean fluorescence intensity at 10 uM after 24 hrs in presence of H2O2 by Fluo-3/AM staining based flow cytometric analysis (reference value: 43156).
Test [5] deals with PC-12. Nature of the test: Neuroprotection against H2O2-induced oxidative damage in rat PC12 cells assessed as viable cells at 5 uM after 24 hrs in presence of H2O2 by annexin V-FITC/propidium iodide staining based flow cytometric analysis (reference value: 63.6%). The settings on record: PC-12, 24 h, read-out: Activity.
In test [6] the test system is PC-12. Nature of the test: Neuroprotection against H2O2-induced oxidative damage in rat PC12 cells assessed as viable cells at 10 uM after 24 hrs in presence of H2O2 by annexin V-FITC/propidium iodide staining based flow cytometric analysis (reference value: 63.6%). The settings on record: PC-12, 24 h, read-out: Activity.
In test [7] the test system is PC-12. Put plainly: Neuroprotection against H2O2-induced oxidative damage in rat PC12 cells assessed as necrotic cells at 10 uM after 24 hrs in presence of H2O2 by annexin V-FITC/propidium iodide staining based flow cytometric analysis (reference value: 4.5%).
Test [8] relates to PC-12. Put plainly: Neuroprotection against H2O2-induced oxidative damage in rat PC12 cells assessed as reduction in ROS production by measuring mean fluorescence intensity at 5 uM preincubated for 4 hrs followed by H2O2 addition measured after 24 hrs by DCFH-DA staining-based flow cytometric analysis (reference value: 82616).
For test [9], the system named is PC-12. Nature of the test: Neuroprotection against H2O2-induced oxidative damage in rat PC12 cells assessed as late apoptotic cells at 10 uM after 24 hrs in presence of H2O2 by annexin V-FITC/propidium iodide staining based flow cytometric analysis (reference value: 29.8%).
Test [10] can be described thus: Neuroprotection against LPS-induced inflammation in […] cells assessed as reduction in ROS production by measuring mean fluorescence intensity at 5 uM after 18 hrs by DCFH-DA staining-based flow cytometric analysis (reference value: 70385).
The subject of test [11] is PC-12. Nature of the test: Neuroprotection against H2O2-induced oxidative damage in rat PC12 cells assessed as viable cells at 2.5 uM after 24 hrs in presence of H2O2 by annexin V-FITC/propidium iodide staining based flow cytometric analysis (reference value: 64.1%). As to conditions: PC-12, 24 h, read-out: Activity.
Test [12] deals with PC-12. Put plainly: Neuroprotection against H2O2-induced oxidative damage in rat PC12 cells assessed as reduction in ROS production by measuring mean fluorescence intensity at 10 uM preincubated for 4 hrs followed by H2O2 addition measured after 24 hrs by DCFH-DA staining-based flow cytometric analysis (reference value: 102489).
A short description of test [13]: Neuroprotection against H2O2-induced inflammation in […] cells assessed as reduction in ROS production by measuring mean fluorescence intensity at 10 uM after 18 hrs by DCFH-DA staining-based flow cytometric analysis (reference value: 20004).
The test system of test [14] is PC-12. Nature of the test: Neuroprotection against H2O2-induced oxidative damage in rat PC12 cells assessed as reduction in ROS production by measuring mean fluorescence intensity at 2.5 uM preincubated for 4 hrs followed by H2O2 addition measured after 24 hrs by DCFH-DA staining-based flow cytometric analysis (reference value: 102489).
The subject of test [15] is PC-12. Put plainly: Neuroprotection against H2O2-induced oxidative damage in rat PC12 cells assessed as intracellular Ca2+ level by measuring mean fluorescence intensity at 10 uM after 24 hrs in presence of H2O2 by Fluo-3/AM staining based flow cytometric analysis (reference value: 51697).
Test [16] has as its system PC-12. Nature of the test: Neuroprotection against H2O2-induced oxidative damage in rat PC12 cells assessed as reduction in ROS production by measuring mean fluorescence intensity at 5 uM preincubated for 4 hrs followed by H2O2 addition measured after 24 hrs by DCFH-DA staining-based flow cytometric analysis (reference value: 102489).

Consider `CC(C)=CCc1c(O)cc(/C=C/c2ccc3c(c2)[C@H](c2cc(O)c4c(c2)OC(C)(C)CC4)[C@@H](c2ccc(O)cc2)O3)cc1O`, for which the Activity in [1] was 25.1%; in [3] it was 1.8%; in [7], 0.6%; in test [9] it was 4.8%. In addition, the Flu intensity in test [2] came to 55345; in [4], 35826; in [8] it was 58560; in test [10], 51980. Further, in test [5], the viability at 5 µM came to 84%. In addition, in [6], the viability at 10 µM was determined as 92.7%.

As for `CC(C)=CCc1c(O)cc(/C=C/c2ccc3c(c2)[C@H](c2cc(O)c(CC=C(C)C)c(O)c2)[C@@H](c2ccc(O)cc2)O3)cc1O`, the viability at 2.5 µM in test [11] is 75.9%. For the same compound, the Flu intensity was 25470 in [12]; 8220 in test [13]; 97612 in [14]; 25664 in test [15]; 85417 in test [16].
